Source: US20100181035A1, “GLUCOSYLTRANSFERASES” (UNIVERSITY OF YORK, priority 2003, published 2010)

How the values were obtained:
[1] = biological target: T1, glucosyltransferase 72E1 (UGT72E1) (Arabidopsis thaliana, UniProt Q94A84); experiment: Glucosyltransferase activity assay with recombinant UGT72E1, HPLC analysis; type: biochemical; conditions: substrate glucosylation; 2 μg enzyme, 1 mM phenolic substrate, 5 mM UDP-glucose, 100 mM Tris-HCl pH 7.0, 30° C., 1 h; HPLC peak area
T1 construct: made in house; host or cells: E. coli
T1 sequence (Q94A84 1-487): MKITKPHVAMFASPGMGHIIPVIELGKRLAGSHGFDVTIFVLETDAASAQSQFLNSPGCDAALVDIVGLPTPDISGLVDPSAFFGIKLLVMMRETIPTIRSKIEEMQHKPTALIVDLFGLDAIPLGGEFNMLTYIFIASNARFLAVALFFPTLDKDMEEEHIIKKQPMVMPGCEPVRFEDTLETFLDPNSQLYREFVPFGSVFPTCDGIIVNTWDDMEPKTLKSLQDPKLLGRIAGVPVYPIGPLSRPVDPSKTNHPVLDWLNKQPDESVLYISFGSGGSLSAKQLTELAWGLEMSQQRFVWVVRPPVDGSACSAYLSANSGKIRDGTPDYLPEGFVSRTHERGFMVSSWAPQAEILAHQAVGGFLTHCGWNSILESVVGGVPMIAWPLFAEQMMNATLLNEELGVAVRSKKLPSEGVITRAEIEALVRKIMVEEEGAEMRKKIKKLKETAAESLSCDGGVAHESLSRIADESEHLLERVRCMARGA
Protocol: Recombinant UGT72E1 was expressed and purified from E. coli as described previously (Lim et al., 2001, J. Biol. Chem. 276, 4344-4349). The enzyme (2 μg) was incubated with 1 mM phenolic substrates, 5 mM UDP-glucose, 100 mM Tris-HCl, pH 7.0 in a total volume 200 μl. The reaction mix was incubated at 30° C. for 1 h and was analysed using HPLC subsequently.
Coniferyl alcohol: 10-25% acetonitrile (0.1% TFA), 306 nm Sinapyl alcohol: 10-25% acetonitrile (0.1% TFA), 285 nm p-coumaryl alcohol: 10-25% acetonitrile (0.1% TFA), 311 nm coniferyl aldehyde: 10-47% acetonitrile (0.1% TFA), 311 nm sinapyl aldehyde: 10-47% acetonitrile (0.1% TFA), 280 nm p-coumaryl aldehyde: 10-47% acetonitrile (0.1% TFA), 315 nm

[2] = biological target: T2, glucosyltransferase 72E2 (UGT72E2) (Arabidopsis thaliana, UniProt Q9LVR1); experiment: Glucosyltransferase activity assay with 72E2, HPLC analysis; type: biochemical; conditions: substrate glucosylation; HPLC peak area; conditions for UGT72E1: 1 mM substrate, 5 mM UDP-glucose, pH 7.0, 30° C., 1 h
T2 sequence (Q9LVR1 1-481): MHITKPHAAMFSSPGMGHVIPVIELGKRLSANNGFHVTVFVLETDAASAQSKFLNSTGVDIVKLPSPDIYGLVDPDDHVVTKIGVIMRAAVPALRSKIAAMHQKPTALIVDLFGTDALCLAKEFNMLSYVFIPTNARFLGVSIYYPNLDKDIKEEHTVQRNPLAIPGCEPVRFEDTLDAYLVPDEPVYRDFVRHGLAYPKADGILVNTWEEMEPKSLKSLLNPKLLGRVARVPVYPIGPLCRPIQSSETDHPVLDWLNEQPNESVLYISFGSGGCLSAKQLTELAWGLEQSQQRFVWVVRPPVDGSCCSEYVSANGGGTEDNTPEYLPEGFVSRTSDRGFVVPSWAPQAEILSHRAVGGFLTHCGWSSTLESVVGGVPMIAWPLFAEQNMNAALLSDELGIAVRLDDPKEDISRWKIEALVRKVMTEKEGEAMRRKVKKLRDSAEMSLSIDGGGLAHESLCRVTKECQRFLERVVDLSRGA

| Activity (area, uv × sec) 72E1 [1] [uv × sec] | Activity (area, uv × sec) 72E2 [2] [uv × sec] | SMILES |
| --- | --- | --- |
| 0 | 3339410 | COc1cc(/C=C/CO)cc(OC)c1O [Sinapyl alcohol] |
| 3225766 | 29756923 | COc1cc(/C=C/CO)ccc1O [Coniferyl alcohol] |
| 0 | 0 | OC/C=C/c1ccc(O)cc1 [p-coumaryl alcohol] |

The next lines start with the compound.

| SMILES | Activity (area, uv × sec) 72E1 [1] [uv × sec] | Activity (area, uv × sec) 72E2 [2] [uv × sec] |
| --- | --- | --- |
| O=C/C=C/c1ccc(O)cc1 [p-coumaryl aldehyde] | 9243651 | 2612331 |
| COc1cc(/C=C/C=O)cc(OC)c1O [Sinapyl aldehyde] | 13655427 | 37002362 |
| COc1cc(/C=C/C=O)ccc1O [Coniferyl aldehyde] | 21950129 | 5068215 |
